The text below walks through data of patent publication US12599560B2, “Lipids and lipid nanoparticle formulations” (Longuide Biopharma Corporation, priority 2023, dated 2026).

Series [1] can be described thus: Particle size and PDI by dynamic light scattering. It is filed as physicochemical. The following applies: Table 2; for Particle size (nm): LNP formulation with mRNA; for PDI: polydispersity value. The method in brief:
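Lipid nanoparticle solution (about 0.04 mg/mL mRNA) diluted in ultrapure water and particle size measured by dynamic light scattering on a Malvern instrument. Sample then further diluted with water for potential measurement.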

The nature of series [2]: Nucleic acid encapsulation efficiency by fluorescence (RiboGreen). Type of series: physicochemical. As to the method:
The nucleic acid encapsulation rate of the nucleic acids lipid nanoparticle formulations obtained in steps 6, 7, and 8 can be determined by fluorescence methods, such as using the Quant-iT™ RiboGreen RNA Quantification Kit (Thermo Fisher Scientific). Take the RiboGreen RNA Quantification Kit as an example: Configure the low-range working solution and mRNA standard solution according to the instructions. Take 3 μL of the nucleic acid lipid nanoparticle solution obtained in step 6, add 297 μL of the Tris-EDTA buffer (TE buffer) provided with the kit, mix well, and then suck up 100 μL of it into the black-bottomed ninety-six-well plate, and then add 100 μL of the RiboGreen low-range detection working solution. Add 100 μL of different concentrations of mRNA standard solution into the black bottom 96-well plate, and add 100 μL of RiboGreen low-range detection working solution. After gently blowing and mixing well, incubate for 5 minutes away from light, and then immediately detect and record the fluorescence signal intensity using a multifunctional enzyme labeling instrument (BMG LABTECH, FLUOstar Omega). The free mRNA content not encapsulated by the lipid nanoparticles was calculated by standard curve fitting and calculation, and then divided by the total amount of mRNA in the wells detected to find the nucleic acid encapsulation rate of this nucleic acid lipid nanoparticle preparation.

The mark [3] stands for this setting: molar ratio 1.50:11.50:38.50:48.50, N/P 24.
Where [4] appears, read: molar ratio 1.50:20.00:33.50:45.00, N/P 40.
The mark [5] stands for this setting: molar ratio 1.71:12.98:45.31:40.00, N/P 40.

As for `CCCCCCCCCCCCOC(=O)C(O)CN(CCCN1CCN(CCCN(CC(O)C(=O)OCCCCCCCCCCCC)CC(O)C(=O)OCCCCCCCCCCCC)CC1)CC(O)C(=O)OCCCCCCCCCCCC` (stereo not drawn) [Compound L0191], the “Particle size (nm)” value in series [1] (setting [3]) stood at 75.33 ± 0.78 nm; in series [1] (setting [4]), 70.87 ± 0.35 nm; in series [1] (setting [5]), 92.00 ± 0.39 nm. Moreover, the PDI in series [1] (setting [3]) was 0.10 ± 0.01; in series [1] (setting [4]) it was 0.17 ± 0.01; in series [1] (setting [5]) it was 0.15 ± 0.02. Further, the “encapsulation efficiency (in words)” value in series [2] (all tested formulations) is listed as “high”. The encapsulation efficiency in series [2] (formulation No. 1, molar ratio 1.50:20:33.50:45.00) is 96.26%; in series [2] (formulation No. 2, molar ratio 1.50:11.50:38.50:48.50), 97.92%.
